Assay results taken from patent US12643871B2, “Aryl formamide compound containing chiral sulfur oxide or salt thereof, preparation method, herbicidal composition and use thereof” (Qingdao Kingagroot Chemical Compound Co., Ltd., priority 2019, dated 2026).

Experiments:
Assay in all cases: Weeding effect in post-emergence stage
Format in all cases: in vivo
Conditions in all cases: 250 g/ha; 2 leaf stage; 15 days after application; fresh weight control rate
Abutilon theophrasti = system: Abutilon theophrasti
Procedure, shortened: (§1)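 Post-emergence spray, 2-leaf stage; doses 500–15 g/ha; acetone + Tween 80 + methyl oleate EC (1.5 L/ha) as synergist. Greenhouse 15 d. Readout: fresh weight control rate graded levels 0–5 (5 = above 85%, 0 = below 5%); triplicate means.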

Amaranthus retroflexus = system: Amaranthus retroflexus
Procedure, shortened: as §1

Digitaria sanguinalis = system: Digitaria sanguinalis
Procedure, shortened: as §1

Echinochloa crusgali = system: Echinochloa crusgali
Procedure, shortened: as §1

Setaria viridis = system: Setaria viridis
Procedure, shortened: as §1

Structure (SMILES)	weeding effect in post-emergence stage, activity level (growth control rate), Abutilon theophrasti (Abutilon theophrasti)	weeding effect in post-emergence stage, activity level (growth control rate), Amaranthus retroflexus (Amaranthus retroflexus)	weeding effect in post-emergence stage, activity level (growth control rate), Digitaria sanguinalis (Digitaria sanguinalis)	weeding effect in post-emergence stage, activity level (growth control rate), Echinochloa crusgali (Echinochloa crusgali)	weeding effect in post-emergence stage, activity level (growth control rate), Setaria viridis (Setaria viridis)
Cc1nnc(NC(=O)c2ccc(C(F)(F)F)c([S@+]([O-])C(C)(C)C)c2F)o1 [Compound 7]	5 (Level 5: growth control rate is above 85%)	5 (Level 5: growth control rate is above 85%)	4 (Level 4: growth control rate is greater than or equal to 60% and less than 85%)	5 (Level 5: growth control rate is above 85%)	4 (Level 4: growth control rate is greater than or equal to 60% and less than 85%)
Cc1nnc(NC(=O)c2ccc(C(F)(F)F)c([S@+]([O-])CCC(C)C)c2F)o1 [Compound 9]	5 (Level 5: growth control rate is above 85%)	5 (Level 5: growth control rate is above 85%)	5 (Level 5: growth control rate is above 85%)	5 (Level 5: growth control rate is above 85%)	5 (Level 5: growth control rate is above 85%)
CCC(C)C[S@@+]([O-])c1c(C(F)(F)F)ccc(C(=O)Nc2nnc(C)o2)c1F (stereo partly shown) [Compound 10]	5 (Level 5: growth control rate is above 85%)	5 (Level 5: growth control rate is above 85%)	5 (Level 5: growth control rate is above 85%)	5 (Level 5: growth control rate is above 85%)	5 (Level 5: growth control rate is above 85%)
Cc1nnc(NC(=O)c2ccc(C(F)(F)F)c([S@+]([O-])CC(C)(C)C)c2F)o1 [Compound 11]	5 (Level 5: growth control rate is above 85%)	5 (Level 5: growth control rate is above 85%)	5 (Level 5: growth control rate is above 85%)	5 (Level 5: growth control rate is above 85%)	5 (Level 5: growth control rate is above 85%)
CCCCCC[S@@+]([O-])c1c(C(F)(F)F)ccc(C(=O)Nc2nnc(C)o2)c1F [Compound 12]	5 (Level 5: growth control rate is above 85%)	5 (Level 5: growth control rate is above 85%)	3 (Level 3: growth control rate is greater than or equal to 40% and less than 60%)	5 (Level 5: growth control rate is above 85%)	3 (Level 3: growth control rate is greater than or equal to 40% and less than 60%)
CC=CC[S+]([O-])c1c(C(F)(F)F)ccc(C(=O)Nc2nnc(C)o2)c1F (stereo not shown) [Compound 21]	5 (Level 5: growth control rate is above 85%)	5 (Level 5: growth control rate is above 85%)	5 (Level 5: growth control rate is above 85%)	5 (Level 5: growth control rate is above 85%)	5 (Level 5: growth control rate is above 85%)
C#CCC[S@@+]([O-])c1c(C(F)(F)F)ccc(C(=O)Nc2nnc(C)o2)c1F [Compound 24]	5 (Level 5: growth control rate is above 85%)	5 (Level 5: growth control rate is above 85%)	5 (Level 5: growth control rate is above 85%)	5 (Level 5: growth control rate is above 85%)	5 (Level 5: growth control rate is above 85%)
CC#CC[S@@+]([O-])c1c(C(F)(F)F)ccc(C(=O)Nc2nnc(C)o2)c1F [Compound 25]	5 (Level 5: growth control rate is above 85%)	5 (Level 5: growth control rate is above 85%)	5 (Level 5: growth control rate is above 85%)	5 (Level 5: growth control rate is above 85%)	5 (Level 5: growth control rate is above 85%)
Cc1nnc(NC(=O)c2ccc(C(F)(F)F)c([S@+]([O-])CC(C)F)c2F)o1 (stereo partly shown) [Compound 27]	5 (Level 5: growth control rate is above 85%)	5 (Level 5: growth control rate is above 85%)	5 (Level 5: growth control rate is above 85%)	5 (Level 5: growth control rate is above 85%)	5 (Level 5: growth control rate is above 85%)
Cc1nnc(NC(=O)c2ccc(C(F)(F)F)c([S@+]([O-])CCC(F)F)c2F)o1 [Compound 28]	5 (Level 5: growth control rate is above 85%)	5 (Level 5: growth control rate is above 85%)	5 (Level 5: growth control rate is above 85%)	5 (Level 5: growth control rate is above 85%)	5 (Level 5: growth control rate is above 85%)
Cc1nnc(NC(=O)c2ccc(C(F)(F)F)c([S@+]([O-])CC(C)(F)F)c2F)o1 [Compound 29]	5 (Level 5: growth control rate is above 85%)	5 (Level 5: growth control rate is above 85%)	5 (Level 5: growth control rate is above 85%)	5 (Level 5: growth control rate is above 85%)	5 (Level 5: growth control rate is above 85%)
Cc1nnc(NC(=O)c2ccc(C(F)(F)F)c([S@+]([O-])C(F)(F)F)c2F)o1 [Compound 30]	5 (Level 5: growth control rate is above 85%)	5 (Level 5: growth control rate is above 85%)	5 (Level 5: growth control rate is above 85%)	5 (Level 5: growth control rate is above 85%)	5 (Level 5: growth control rate is above 85%)
Cc1nnc(NC(=O)c2ccc(C(F)(F)F)c([S@+]([O-])C(F)(F)C(F)(F)F)c2F)o1 [Compound 31]	5 (Level 5: growth control rate is above 85%)	5 (Level 5: growth control rate is above 85%)	5 (Level 5: growth control rate is above 85%)	5 (Level 5: growth control rate is above 85%)	5 (Level 5: growth control rate is above 85%)
Cc1nnc(NC(=O)c2ccc(C(F)(F)F)c([S@+]([O-])C(F)(C(F)(F)F)C(F)(F)F)c2F)o1 [Compound 32]	5 (Level 5: growth control rate is above 85%)	5 (Level 5: growth control rate is above 85%)	5 (Level 5: growth control rate is above 85%)	5 (Level 5: growth control rate is above 85%)	5 (Level 5: growth control rate is above 85%)
